According to patent US20110207660A1, “PHARMACEUTICAL FORMULATIONS OF AN HCV PROTEASE INHIBITOR IN A SOLID MOLECULAR DISPERSION” (Schering Corporation, priority 2008, published 2011):

Experiments:
[1] = Clinical Study 2: once-a-day 300 mg Compound I with 100 mg ritonavir for 10 days, healthy human subjects, fed; details: in vivo, steady state, Day 10, formulation G tablets 3×100 mg QD + 100 mg ritonavir QD, 8 healthy human subjects, read-out: Cmin Range
Method: The pharmacokinetic profile of Compound I following once-a-day oral administration of 300 mg Compound I in a formulation of the present invention in tablet form (specifically exemplary formulation G described in Table 3A, 3×100 mg, QD) in combination with 100 mg ritonavir (RTV, 1×100 mg, QD) for 10-days to healthy human subjects under fed conditions (i.e., following a standard meal) was determined. […] Blood was collected from each subject pre-dose (on Days 7, 8, and 9), as well as 0.5, 1, 1.5, 2, 3, 4, 5, 6, 7, 8, 10, 12, 16, and 24 hr post-dose (on Day 10) for determining the concentration of Compound I in the plasma and to calculate the pharmacokinetic parameters for each formulation.

[2] = Biopharmaceutics Classification System class; type: physicochemical; details: low solubility and low permeability
[3] = in vitro IC90 of Compound I; details: reference line in FIGS. 5A and 5B

CCCC[C@H](NC(=O)[C@@H]1[C@@H]2[C@H](CN1C(=O)[C@@H](NC(=O)NC1(CS(=O)(=O)C(C)(C)C)CCCCC1)C(C)(C)C)C2(C)C)C(=O)C(=O)NC1CC1 [Compound I]
concentration at 10 days [1]: 167 to 426 ng/mL | Biopharmaceutics Classification System class [2]: Class IV | in vitro IC90 [3]: 0.028 µg/mL
